Results as given in patent US7320806B2, “Compositions and methods for treating NIDDM and other conditions and disorders associated with AMPK regulation” (priority 2003, dated 2008).
Entries after “also recorded” stand apart in the source; their conditions may differ.

Key:
[1] = test system: hippocampal neurons; settings: glucose deprivation, chemical hypoxia, glutamate, amyloid beta-peptide; cited from earlier work
[2] = test system: astrocytes; settings: incubation of astrocytes; cited from earlier work
[3] = test system: rat epitrochlearis muscles; settings: 30 microU/ml insulin, treated 3.5 h previously; cited from earlier work
[4] = administered before ischemia; cited from earlier work
[5] = chronic administration; cited from earlier work
[6] = test system: 3T3-L1 adipocytes; settings: added at an early phase of differentiation; cited from earlier work
[7] = test system: AMPK; settings: cited from earlier work
[8] = test system: L6 muscle cells; test: glucose uptake (2-NBDG) in L6 myotubes; type: cell-based
Procedure: The permeate portion of GMM was tested for glucose uptake in L6 muscle cells. L6 cells were grown as monolayers in Dulbecco's modified Eagle's medium (DMEM) containing 1 mM glutamine, 1 mM pyruvate and 25 mM glucose. The medium was supplemented with 5% fetal calf serum (FCS). Experiments were undertaken in 48-well plates seeded from pre-confluent flasks with 50 000 cells per well. The cells were grown to confluence and the medium was changed to DMEM containing 0.5% FCS and 2.5 mM glucose (L6 Myo Medium) for at least 76 hrs to induce differentiation of L6 cells and formation of L6 myotubes. Myotubes were then incubated with test substances for 30 minutes—Protocol SMM, or in Dulbecco's PBS supplemented with 20 mM Hepes and 2 mM glucose without serum—Serum-free Medium (SFM) Protocol as described by Fryer et al. (Activation of glucose transport by AMP-activated protein kinase via stimulation of Nitric oxide synthase, Diabetes, 49(12), 1978-85, 2000, Fryer LGD, et al, herein incorporated by reference in its entirety.).
Next, 30 uM of 2-NBDG was added for 2 minutes at 22 C. Subsequently, cell culture medium was removed and cells were washed twice with cold DPBS. Then, cells were lysed in 0.5% SDS. Fluorescence was measured at 466/542 nm (excitation/emission) using 100 ul of cell lysate in 2 ml of water.
Cells were cultured, and treated in L6 Myo Medium (SSM)—SSM Protocol or in serum-free medium (SFM—DPBS containing 20 mM Hepes, 2 mM glucose)—SFM Protocl as described by Fryer et al. Glucose uptake was measured by adding 30 uM of 2-NBDG for 2′ at 22 C. Experiments were performed in duplicates.
L-NMMA has been used in the experiment to verify whether GMM-induced glucose transport in L6 cells is or is not inhibited by NOS inhibitors, thus mimicking AICAR-induced mechanism of increased glucose transport. […]
In FIG. 14, permeate cells were tested to determine whether permeate-induced glucose uptake could be inhibited by L-NMMA at the same concentration as that used for inhibition of the AICA effect on glucose uptake. […] Glucose uptake was measured at 22 C for 2 minutes.

[9] = test system: AMPK alpha2; settings: treatment for 10 weeks; cited from earlier work

## NC(=O)c1ncn([C@@H]2O[C@H](COP(=O)(O)O)[C@@H](O)[C@H]2O)c1N [AICAR, 5′-aminoimidazole 4-carboxamide 1-ribonucleotide]
[1]
  neuronal death: protected hippocampal neurons against death
[2]
  ketogenesis from palmitate and carnitine palmitoyltransferase I: stimulate
[3]
  increase in glucose transport in response to insulin versus untreated control muscles: about twofold greater
[4]
  energy metabolism and hepatic injury: simulated the benefits of preconditioning
[5]
  GLUT4 protein expression: enhance
  HDL cholesterol levels: increased
  fasting concentrations of glucose and insulin: decreased
  lowering of systolic blood pressure: 14.6+/−4.3 mmHg
  oral glucose tolerance test: normalized
  plasma triglyceride levels: significantly reduced
[6]
  differentiation of 3T3-L1 adipocytes: inhibit the differentiation
[7]
  increase in AMPK activity over the resting level: two- to three-fold increase

## CC(=O)O.CNC(=N)NCCC[C@H](N)C(=O)O [L-NMMA, NG-methyl-L-arginine, acetate salt]
[8]; L-NMMA 300 uM, 30 minutes pre-treatment in DPBS, acetate salt
  effect on permeate/GMM-induced glucose uptake: inhibits; also recorded: blocks

## CN(C)C(=N)N=C(N)N [Metformin, metformin]
[9]
  AMPK alpha2 activity in the skeletal muscle: significantly increased

## insulin
[8]; culture medium supplemented with 0.5% FCS (SSM)
  glucose uptake increase: 100-120%
[8]; serum-free medium (DPBS)
  glucose uptake increase: 40-50%
